# Laboratory results: ChEMBL document CHEMBL1135456, “Inhibition of MIF bioactivity by rational design of pharmacological inhibitors of MIF tautomerase activity” (J Med Chem, 2002)
# Target: T1, Macrophage migration inhibitory factor (Homo sapiens, UniProt P14174)
# T1 sequence (P14174 whole entry): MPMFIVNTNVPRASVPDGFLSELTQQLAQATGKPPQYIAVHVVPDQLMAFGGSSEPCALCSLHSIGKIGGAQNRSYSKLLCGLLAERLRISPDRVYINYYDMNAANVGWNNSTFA
# Test: Inhibition of human macrophage migration inhibitory factor tautomerase (MIF) activity
row,Structure (SMILES),IC50 [µM]
1,COC(=O)[C@H](CC(C)C)/N=C/c1ccc(O)cc1,> 100
2,CC[C@H](/N=C/c1ccc(O)cc1)C(=O)OC,70
3,COC(=O)[C@H](CO)/N=C/c1ccc(O)cc1,100
4,COC(=O)[C@H](C)/N=C/c1ccc(O)cc1,> 100
5,COC(=O)[C@H](CCSC)/N=C/c1ccc(O)cc1,100

# These reach a lower IC50. Values come first.
row,IC50 [µM],Structure (SMILES)
1,50,COC(=O)[C@@H](Cc1ccccc1)/N=C/c1ccc(O)cc1
2,10,COC(=O)[C@@H](Cc1ccc(O)cc1)/N=C/c1ccc(O)cc1
